US6706663B2, “Herbicidal 3-heterocyclic substituted benzisothiazole and benzisoxazole compounds” (Wyeth, priority 2000, dated 2004)

How the values were obtained:
[1] = tested on: ECHORC (Echinochloa oryzoides); assay: Flooded paddy, preemergence weed control; format: in vivo, Echinochloa oryzoides (Ard.) Fritsch.; conditions: rate 0.1250 kg/ha, rated 3-4 weeks after treatment, 0-9 rating scale
How it was run: (§1)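 Greenhouse paddy test, preemergence. Seeds planted in the top 0.5 cm of silt loam soil, which remained flooded at 1.5–3 cm depth. Scored 0-9 by visual comparison with control.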

[2] = tested on: CYPSE (Cyperus serotinus); assay: Flooded paddy, preemergence weed control; format: in vivo, Rottb.; conditions: rate 0.1250 kg/ha, rated 3-4 weeks after treatment, 0-9 rating scale
Method: Results of herbicide evaluation are expressed on a rating scale (0-9). The scale is based upon a visual observation of plant stand, vigor, malformation, size, chlorosis and overall plant appearance as compared with a control.
Preemergence herbicidal activity under flooded paddy conditions is determined as follows: plant seeds or propagating organs are planted in the top 0.5 cm of silt loam soil in 32 oz. plastic containers with a diameter of 10.5 cm and no drainage holes. Water is added to these containers and maintained at 1.5 to 3 cm above the soil surface for the duration of the experiment. The test compounds are applied as aqueous/acetone mixtures 50/50 v/v pipetted directly into the flood water to give the equivalent of about 0.0080 to 0.1250 kg/ha of active ingredient. The treated containers are placed on greenhouse benches and cared for in accordance with conventional greenhouse procedures. Three to four weeks after treatment, the test is terminated and each container is examined and herbicidal effect rated according to the rating system provided in Example 87.

[3] = tested on: IPOHE (Ipomoea hederacea); assay: Postemergence herbicidal evaluation; format: in vivo, (L.) Jacq.; conditions: rate 0.1250 kg/ha
How it was run: (§2)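 Visual 0–9 injury scores versus control plants, covering stand, vigour, malformation, size, chlorosis and general appearance, taken four to five weeks post-spray and averaged over replicate tests. Plants were sprayed at roughly two weeks old and held on greenhouse benches.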

[4] = tested on: SAGPY (Sagittaria pygmaea); assay: Flooded paddy, preemergence weed control; format: in vivo, L.; conditions: rate 0.1250 kg/ha, rated 3-4 weeks after treatment, 0-9 rating scale
How it was run: as §1

[5] = tested on: ECHCG (Echinochloa crus-galli); assay: Postemergence herbicidal evaluation; format: in vivo, (L.) Beau; conditions: rate 0.1250 kg/ha
How it was run: as §2

ORYSAT (Rice, Tebonnet) [6] = assay: Flooded paddy, post-transplant rice tolerance; format: in vivo, Oryza sativa, (L.) Tebonnet; conditions: flooded paddy, post-transplant rice; rate 0.1250 kg/ha; rated 3-4 weeks after treatment; 0-9 rating scale
How it was run: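 Two ten-day-old seedlings were transplanted into silt loam, flooded and held at 1.5 to 3 cm water above the soil before herbicide treatment. Pots stayed in the greenhouse at that water level. Injury was scored visually on a 0-9 scale versus untreated control.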

CYPIR (Cyperus iria) = assay: Flooded paddy, preemergence weed control; format: in vivo; conditions: rate 0.1250 kg/ha, rated 3-4 weeks after treatment, 0-9 rating scale
How it was run: as §1

[7] = tested on: AMBEL (Ambrosia artemisifolia); assay: Postemergence herbicidal evaluation; format: in vivo, L.; conditions: rate 0.1250 kg/ha
How it was run: as §2

[8] = tested on: CHEAL (Chenopodium album); assay: Postemergence herbicidal evaluation; format: in vivo, L.; conditions: rate 0.1250 kg/ha
How it was run: as §2

[9] = tested on: CASOB (Cassia obtusifolia); assay: Postemergence herbicidal evaluation; format: in vivo, L.; conditions: rate 0.1250 kg/ha
How it was run: as §2

ZEAMX (Corn, Field) [10] = assay: Preemergence herbicidal evaluation; format: in vivo, Zea mays, L.; conditions: Rate 0.2500 kg/ha; preemergence; rated 4-5 weeks after treatment
GALAP (Galium aparine) [11] = assay: Postemergence herbicidal evaluation; format: in vivo; conditions: rate 0.1250 kg/ha
How it was run: as §2

[12] = tested on: AMBEL (Ambrosia artemisifolia); assay: Preemergence herbicidal evaluation; format: in vivo, L.; conditions: Rate 0.2500 kg/ha; preemergence; rated 4-5 weeks after treatment
How it was run: (§3)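 Rating 0–9, visual, vs control; 4–5 wk after spraying seeded cups with compound in aq. acetone; conventional greenhouse care.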

[13] = tested on: CHEAL (Chenopodium album); assay: Preemergence herbicidal evaluation; format: in vivo, L.; conditions: Rate 0.2500 kg/ha; preemergence; rated 4-5 weeks after treatment
How it was run: as §3

[14] = tested on: CASOB (Cassia obtusifolia); assay: Preemergence herbicidal evaluation; format: in vivo, L.; conditions: Rate 0.2500 kg/ha; preemergence; rated 4-5 weeks after treatment
How it was run: as §3

[15] = tested on: ECHCG (Echinochloa crus-galli); assay: Preemergence herbicidal evaluation; format: in vivo, (L.) Beau; conditions: Rate 0.2500 kg/ha; preemergence; rated 4-5 weeks after treatment
How it was run: as §3

SETVI (Setaria viridis) [16] = assay: Preemergence herbicidal evaluation; format: in vivo, (L.) Beau; conditions: Rate 0.2500 kg/ha; preemergence; rated 4-5 weeks after treatment
How it was run: as §3

[17] = tested on: TRZAWR (Wheat, Winter, cv Riband); assay: Preemergence herbicidal evaluation; format: in vivo, Triticum aestivum; conditions: Rate 0.2500 kg/ha; preemergence; rated 4-5 weeks after treatment
How it was run: as §3

SETVI (Setaria viridis) [18] = assay: Postemergence herbicidal evaluation; format: in vivo, (L.) Beau; conditions: rate 0.1250 kg/ha
How it was run: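 Visual injury score (0-9: stand, vigor, malformation, size, chlorosis, overall appearance vs untreated control) taken four to five weeks post-spray. Two-week-old seedlings received about 0.0040 to 1.000 kg/ha active compound in acetone/water with 0.5% TWEEN 20.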

ZEAMX (Corn, Field) [19] = assay: Postemergence herbicidal evaluation; format: in vivo, Zea mays, L.; conditions: rate 0.1250 kg/ha
How it was run: as §2

GALAP (Galium aparine) [20] = assay: Preemergence herbicidal evaluation; format: in vivo; conditions: Rate 0.2500 kg/ha; preemergence; rated 4-5 weeks after treatment
How it was run: as §3

ORYSAT (Rice, Tebonnet) [21] = assay: Postemergence herbicidal evaluation; format: in vivo, Oryza sativa, (L.) Tebonnet; conditions: rate 0.1250 kg/ha
How it was run: as §2

[22] = tested on: ABUTH (Abutilon theophrasti); assay: Postemergence herbicidal evaluation; format: in vivo, Medic.; conditions: rate 0.1250 kg/ha
How it was run: as §2

[23] = tested on: ABUTH (Abutilon theophrasti); assay: Preemergence herbicidal evaluation; format: in vivo, Medic.; conditions: Rate 0.2500 kg/ha; preemergence; rated 4-5 weeks after treatment
ORYSAT (Rice, Tebonnet) [24] = assay: Preemergence herbicidal evaluation; format: in vivo, Oryza sativa, (L.) Tebonnet; conditions: Rate 0.2500 kg/ha; preemergence; rated 4-5 weeks after treatment
[25] = tested on: TRZAWR (Wheat, Winter, cv Riband); assay: Postemergence herbicidal evaluation; format: in vivo, Triticum aestivum; conditions: rate 0.1250 kg/ha
How it was run: as §2

[26] = tested on: MOOVA (Monochoria vaginalis); assay: Flooded paddy, preemergence weed control; format: in vivo, Presl.; conditions: rate 0.1250 kg/ha, rated 3-4 weeks after treatment, 0-9 rating scale
How it was run: as §1

[27] = tested on: GLXMAW (Soybean, Williams); assay: Preemergence herbicidal evaluation; format: in vivo, Glycine max, (L.) Merr. cv Williams; conditions: Rate 0.2500 kg/ha; preemergence; rated 4-5 weeks after treatment
[28] = tested on: GLXMAW (Soybean, Williams); assay: Postemergence herbicidal evaluation; format: in vivo, Glycine max, (L.) Merr. cv Williams; conditions: rate 0.1250 kg/ha
How it was run: as §2

[29] = tested on: IPOHE (Ipomoea hederacea); assay: Preemergence herbicidal evaluation; format: in vivo, (L.) Jacq.; conditions: Rate 0.2500 kg/ha; preemergence; rated 4-5 weeks after treatment

Cc1nnc(-c2nsc3ccc(-n4c(=O)cc(C(F)(F)F)n(C)c4=O)cc23)o1 [Compound 16, 1-methyl-3-[3-(5-methyl-1,3,4-oxadiazol-2-yl)-1,2-benzisothiazol-5-yl]-6-(trifluoromethyl)uracil] was tested, and the “herbicidal rating, ECHORC” value [1] was 8.0, the “herbicidal rating, CYPSE” value [2] was 6.0 and the “Postemergence herbicidal rating, IPOHE” value [3] was 4.5. The “herbicidal rating, SAGPY” value [4] was 4.5, the “Postemergence herbicidal rating, ECHCG” value [5] was 1.5 and the “herbicidal rating, ORYSAT (rice tolerance)” value (ORYSAT (Rice, Tebonnet) [6]) was 5.5. For the same compound, the “herbicidal rating, CYPIR” value (CYPIR (Cyperus iria)) was 8.5, the “Postemergence herbicidal rating, AMBEL” value [7] was 4.5 and the “Postemergence herbicidal rating, CHEAL” value [8] was 3.5. For the same compound, the “Postemergence herbicidal rating, CASOB” value [9] was 3.5, the “ZEAMX preemergence herbicidal rating” value (ZEAMX (Corn, Field) [10]) was 7.5 and the “Postemergence herbicidal rating, GALAP” value (GALAP (Galium aparine) [11]) was 3.0. The “AMBEL preemergence herbicidal rating” value [12] was 9.0, the “CHEAL preemergence herbicidal rating” value [13] was 9.0 and the “CASOB preemergence herbicidal rating” value [14] was 9.0. For the same compound, the “ECHCG preemergence herbicidal rating” value [15] was 9.0, the “SETVI preemergence herbicidal rating” value (SETVI (Setaria viridis) [16]) was 9.0 and the “TRZAWR preemergence herbicidal rating” value [17] was 7.0. The “Postemergence herbicidal rating, SETVI” value (SETVI (Setaria viridis) [18]) was 4.5, the “Postemergence herbicidal rating, ZEAMX” value (ZEAMX (Corn, Field) [19]) was 4.3 and the “GALAP preemergence herbicidal rating” value (GALAP (Galium aparine) [20]) was 7.0. The “Postemergence herbicidal rating, ORYSAT” value (ORYSAT (Rice, Tebonnet) [21]) was 3.0, the “Postemergence herbicidal rating, ABUTH” value [22] was 4.5 and the “ABUTH preemergence herbicidal rating” value [23] was 9.0. For the same compound, the “ORYSAT preemergence herbicidal rating” value (ORYSAT (Rice, Tebonnet) [24]) was 7.0, the “Postemergence herbicidal rating, TRZAWR” value [25] was 3.0 and the “herbicidal rating, MOOVA” value [26] was 9.0. The “GLXMAW preemergence herbicidal rating” value [27] was 7.5, the “Postemergence herbicidal rating, GLXMAW” value [28] was 5.8 and the “IPOHE preemergence herbicidal rating” value [29] was 9.0.
